# Test results taken from patent US11510902B2, “Method for preventing or treating non-alcoholic fatty liver disease by antrodins” (Simpson Biotech Co., Ltd., priority 2019, dated 2022).
# Experiments:
# [1] = tested on: C57BL/6J (B6) mice on high fat diet; assay: High fat diet mice, treating process (20 weeks, dosing 11th to 20th week); format: in vivo; set-up: Malondiadehyde in liver: unit not given here; conditions: for body weight: 11th to 20th week, high fat diet 20 weeks; for reduction of body weight increasing rate as compared with the high fat diet group: at the end of 20 weeks; for ALT / AST / TC / TG / attenuated the increased ALT as compared with the high fat diet group / attenuated the increased AST as compared with the high fat diet group / attenuated the increased TC as compared with the high fat diet group / attenuated the increased TG as compared with the high fat diet group: serum; for ALT / AST / TC / TG / MDA level increasing rate in liver / Malondiadehyde in liver / Plasma insulin / blood glucose / liver hypertrophy / liver weight / plasma insulin level increasing rate was reduced by / Plasma insulin increasing rate / body weight increasing rate / lipid droplets in the liver, hematoxylin-eosin staining of liver sections / MDA level increasing rate was reduced by / liver appearance: pale color (phenomenon of fatty liver) / attenuated the increased ALT as compared with the high fat diet group / attenuated the increased AST as compared with the high fat diet group / attenuated the increased TC as compared with the high fat diet group / attenuated the increased TG as compared with the high fat diet group / attenuated the increased blood sugar as compared with the high fat diet group: treating process; for Plasma insulin increasing rate / body weight increasing rate: relative to control group; for lipid droplets in the liver, hematoxylin-eosin staining of liver sections: FIG. 5; for MDA level increasing rate was reduced by: liver; for liver appearance: pale color (phenomenon of fatty liver): FIG. 4
# Procedure: 2.1 8-week-old male C57BL/6J (B6) mice were used, which were purchased from the National Laboratory Animal Center (Taipei, Taiwan). All animals were maintained at an animal room at a temperature of 23±2° C., and 12 hrs light/12 hrs dark cycle.
# According to the “Healthy food of liver health effects assessment” (Taiwan Food and Drug Administration, Taiwan), all 8-week test mice were randomized into a control group, a high fat diet group, and test (high fat diet with different dosage of Hepasim®, Antrodin B or Antrodin C) groups. Each group contained 3-4 mice.
# The control group was given 20 weeks of normal diet, and all other groups were given 20 weeks of high fat diet. […] Body weights of the mice in each group were recorded weekly. At the end of 20 weeks, all mice were sacrificed by CO2 overdose. At the time of death of the mouse, blood was collected from the heart of the mouse. To separate the serum, whole blood was centrifuged in a refrigerated centrifuge at 15,700×g at 4° C. for 5 minutes. Livers were removed from the mice, and then rinsed in ice-cold saline. Liver samples were divided for various assays and histological assessment.
# Stored liver samples (0.1 g) were homogenized in 1 ml PBS, and then was centrifuged in a refrigerated centrifuge at 15,700×g at 4° C. for 5 minutes to remove pellets. The levels of aspartate aminotransferase (AST), alanine aminotransferase (ALT), total cholesterol (TC) and total triglyceride (TG) of the serum and the liver were measured by corresponding detection kits (Randox). Blood sugar in whole blood was detected by blood sugar machine (Roche). Plasma insulin was detected by Insulin mouse ELISA kit (Invitrogen). Malondialdehyde (MDA) level in liver was measured by using Lipid Peroxidation Assay Kit (Colorimetric/Fluorometric) (abcam, #ab118977). Liver samples were divided for various assays and histological assessment.
# The livers were removed from the mice, and then fixed in 10% neural formalin. Liver samples were dehydrated by placing in ethanol at different concentrations (30, 50, 70, 95, 99.5%) and xylene. Finally, liver samples were embedded in paraffin section. For hematoxylin-eosin staining, the liver tissue sections were placed in xylene for 30 minutes for dewaxing, and then sequentially placed in 99.5% ethanol for 10 minutes, 90% ethanol for 5 minutes, 70% ethanol for 1 minute, 50% ethanol for 1 minute and 30% ethanol for 1 minutes for rehydration, and then soaked in distilled water for 10 minutes. To stained nuclei, the samples were soaked in hematoxylin solution for 4 minutes, and then soaked in distilled water for several minutes, followed by soaking in eosin solution for 2 minutes to stain cytoplasm, and then washed in distilled water for 10 minutes. Finally, samples were sequentially placed in 90% ethanol for 2 minutes, 99.5% ethanol for 2 minutes and xylene for 20 minutes, and then mounted by mounting medium.
# All results were expressed as mean±SD. Significant differences were analyzed with two-tailed Student's t-test. P<0.05 represents the statistical difference between two groups.
# Hep G2 cells [2] = assay: Cell viability test (alamar blue); format: cell-based, Human; conditions: concentration less than 100 μg/ml, 72 hrs
# Procedure: (§1) Human hepatoma cell line Hep G2 was cultured in Dulbecco's modified Eagle's medium high glucose (DMEM-HG) containing 10% fetal bovine serum, 100 U/ml penicillin and […] streptomycin at 37° C. under 5% CO2 in an incubator.
# Hepasim® was a mixture from Antrodia cinnamomea mycelia, which was prepared from water or organic solvent extract of Antrodia cinnamomea mycelia. The extract of Antrodia cinnamomea mycelia comprised Antrodin B-E. 5×10^3 Hep G2 cells were seeded in a 96-well plate for 24 hrs, and then incubated with different concentrations of Hepasim®, Antrodin B, Antrodin C and Antrodin D for 72 hrs. After treatment, cells were incubated with alamar blue (10%, w/v) for 3 hrs, and then was read at […]. Cell viability was calculated by [(OD570−OD600)test/(OD570−OD600)control]×100.
# Hep G2 cells [3] = assay: Free fatty acids (FFA)-induced lipid accumulation and Oil Red determination; format: cell-based, Human; conditions: Oil Red; for attenuated lipid accumulation in the cells: vs control group; for cellular lipid accumulation as compared with the control group: FIG. 2
# Procedure: as §1
# 1×10^5 Hep G2 cells were seeded in a 96-well plate and incubated with serum-free cellular medium containing 1% BSA for 24 hrs. To induce lipid accumulation, the above cells were seeded in a mixture of 0.33 mM palmitic acid and 0.66 mM oleic acid for 24 hrs, which were dissolved in serum-free medium with or without Antrodin. After lipid accumulation and Antrodin treatment, cells were washed with PBS and then fixed by 4% paraformaldehyde for 15 mins at room temperature. The fixed cells were washed with PBS for 5 mins, and then rinsed with 60% isopropanol twice; followed by incubation with 1 ml Oil Red kit for 10 mins. For quantitative analysis of cellular lipids, dye in the cellular lipids were extracted with 0.5 ml of isopropanol, and then measured at 490 nm.
# [4] = "10%" Antrodin (so in the source)
# [5] = "30%" Antrodin (so in the source)
# [6] = treated with "10%" Antrodin (so in the source)
# [7] = treated with "30%" Antrodin (so in the source)
smiles,measurement,setting,value
"CC(C)=CCOc1ccc(C2=C(CC(C)C)C(=O)NC2=O)cc1 [Antrodin B, 3-isobutyl-4-[4-(3-methyl-2-butenyloxy)phenyl]-1H-pyrrol-2,5-dione]",body weight,[1]; 10 mg/Kg oral gavage every day,37.14 ± 5.18 g
same,reduction of body weight increasing rate as compared with the high fat diet group,[1]; 10 mg/Kg,14%
same,ALT,[1]; 10 mg/Kg,29.36 ± 6.17 U/l
same,AST,[1]; 10 mg/Kg,44.39 ± 7.06 U/l
same,TC,[1]; 10 mg/Kg,266.61 ± 25.99 mg/dL
same,TG,[1]; 10 mg/Kg,189.57 ± 9.35 mg/dL
same,MDA level increasing rate in liver,[1]; 10 mg/Kg,202.8%
same,Malondiadehyde in liver,[1]; 10 mg/Kg,2.15 ± 0.58
same,Plasma insulin,[1]; 10 mg/Kg,0.99 ± 0.41 ng/mL
same,blood glucose,[1]; 10 mg/Kg,367.20 ± 34.40 mg/dL
same,liver hypertrophy,[1]; 10 mg/Kg,significantly inhibited
same,liver weight,[1]; 10 mg/Kg,1.39 ± 0.33 g
same,plasma insulin level increasing rate was reduced by,[1]; 10 mg/Kg,223.6%
same,Plasma insulin increasing rate,[1]; 10 mg/Kg,80%
same,body weight increasing rate,[1]; 10 mg/Kg,21.1%
same,body weight,[1]; 30 mg/Kg oral gavage every day,41.82 ± 2.61 g
same,ALT,[1]; 30 mg/Kg,29.38 ± 11.45 U/l
same,AST,[1]; 30 mg/Kg,53.64 ± 9.99 U/l
same,TC,[1]; 30 mg/Kg,287.73 ± 48.26 mg/dL
same,TG,[1]; 30 mg/Kg,187.77 ± 6.53 mg/dL
same,MDA level increasing rate in liver,[1]; 30 mg/Kg,97.2%
same,Malondiadehyde in liver,[1]; 30 mg/Kg,1.4 ± 0.56
same,Plasma insulin,[1]; 30 mg/Kg,1.84 ± 0.93 ng/mL
same,blood glucose,[1]; 30 mg/Kg,389.00 ± 41.63 mg/dL
same,liver weight,[1]; 30 mg/Kg,1.5 ± 0.25 g
same,plasma insulin level increasing rate was reduced by,[1]; 30 mg/Kg,69.1%
same,Plasma insulin increasing rate,[1]; 30 mg/Kg,234.5%
same,body weight increasing rate,[1]; 30 mg/Kg,36.3%
same,"lipid droplets in the liver, hematoxylin-eosin staining of liver sections",[1]; [4],significantly attenuated
same,"lipid droplets in the liver, hematoxylin-eosin staining of liver sections",[1]; [5],significantly attenuated
same,MDA level increasing rate was reduced by,[1]; [6],24.8%
same,MDA level increasing rate was reduced by,[1]; [7],129.6%
same,liver appearance: pale color (phenomenon of fatty liver),[1],not observed
same,cytotoxicity to Hep G2 cells,Hep G2 cells [2],no cytotoxicity
same,attenuated lipid accumulation in the cells,Hep G2 cells [3]; 10 μg/ml,12.8%
same,attenuated lipid accumulation in the cells,Hep G2 cells [3]; 100 μg/ml,9.3%
same,cellular lipid accumulation as compared with the control group,Hep G2 cells [3],significantly reduced
"CC(C)=CCOc1ccc(C2=C(CC(C)C)C(=O)N(O)C2=O)cc1 [Antrodin C, 3-isobutyl-4-[4-(3-methyl-2-butenyloxy)phenyl]-1H-pyrrol-1-ol-2,5-dione]",body weight,[1]; 10 mg/Kg oral gavage every day,40.06 ± 4.74 g
same,reduction of body weight increasing rate as compared with the high fat diet group,[1]; 10 mg/Kg,4.5%
same,ALT,[1]; 10 mg/Kg,22.99 ± 5.15 U/l
same,AST,[1]; 10 mg/Kg,38.17 ± 5.53 U/l
same,TC,[1]; 10 mg/Kg,189.36 ± 58.12 mg/dL
same,TG,[1]; 10 mg/Kg,179.28 ± 15.54 mg/dL
same,attenuated the increased ALT as compared with the high fat diet group,[1]; 10 mg/Kg,~12.3%
same,attenuated the increased AST as compared with the high fat diet group,[1]; 10 mg/Kg,~39.35%
same,attenuated the increased TC as compared with the high fat diet group,[1]; 10 mg/Kg,~66.83%
same,attenuated the increased TG as compared with the high fat diet group,[1]; 10 mg/Kg,~11.57%
same,MDA level increasing rate in liver,[1]; 10 mg/Kg,140.8%
same,Malondiadehyde in liver,[1]; 10 mg/Kg,1.71 ± 0.59
same,Plasma insulin,[1]; 10 mg/Kg,1.77 ± 0.85 ng/mL
same,attenuated the increased blood sugar as compared with the high fat diet group,[1]; 10 mg/Kg,about 34.78%
same,blood glucose,[1]; 10 mg/Kg,351.80 ± 85.00 mg/dL
same,liver hypertrophy,[1]; 10 mg/Kg,significantly inhibited
same,liver weight,[1]; 10 mg/Kg,1.06 ± 0.25 g
same,plasma insulin level increasing rate was reduced by,[1]; 10 mg/Kg,81.8%
same,Plasma insulin increasing rate,[1]; 10 mg/Kg,221.8%
same,body weight increasing rate,[1]; 10 mg/Kg,30.6%
same,body weight,[1]; 30 mg/Kg oral gavage every day,37.50 ± 4.80 g
same,reduction of body weight increasing rate as compared with the high fat diet group,[1]; 30 mg/Kg,12.9%
same,ALT,[1]; 30 mg/Kg,17.61 ± 3.90 U/l
same,AST,[1]; 30 mg/Kg,32.33 ± 2.85 U/l
same,TC,[1]; 30 mg/Kg,171.86 ± 40.58 mg/dL
same,TG,[1]; 30 mg/Kg,170.63 ± 13.22 mg/dL
same,attenuated the increased ALT as compared with the high fat diet group,[1]; 30 mg/Kg,~48.96%
same,attenuated the increased AST as compared with the high fat diet group,[1]; 30 mg/Kg,~74.17%
same,attenuated the increased TC as compared with the high fat diet group,[1]; 30 mg/Kg,~86.26%
same,attenuated the increased TG as compared with the high fat diet group,[1]; 30 mg/Kg,~21.96%
same,MDA level increasing rate in liver,[1]; 30 mg/Kg,90.1%
same,Malondiadehyde in liver,[1]; 30 mg/Kg,1.35 ± 0.57
same,Plasma insulin,[1]; 30 mg/Kg,1.25 ± 0.71 ng/mL
same,attenuated the increased blood sugar as compared with the high fat diet group,[1]; 30 mg/Kg,about 79.48%
same,blood glucose,[1]; 30 mg/Kg,298.60 ± 38.93 mg/dL
same,liver hypertrophy,[1]; 30 mg/Kg,significantly inhibited
same,liver weight,[1]; 30 mg/Kg,1.05 ± 0.24 g
same,plasma insulin level increasing rate was reduced by,[1]; 30 mg/Kg,176.3%
same,Plasma insulin increasing rate,[1]; 30 mg/Kg,127.3%
same,body weight increasing rate,[1]; 30 mg/Kg,22.2%
same,"lipid droplets in the liver, hematoxylin-eosin staining of liver sections",[1]; [4],significantly attenuated
same,"lipid droplets in the liver, hematoxylin-eosin staining of liver sections",[1]; [5],significantly attenuated
same,MDA level increasing rate was reduced by,[1]; [6],86%
same,MDA level increasing rate was reduced by,[1]; [7],136.7%
same,liver appearance: pale color (phenomenon of fatty liver),[1],not observed
same,cytotoxicity to Hep G2 cells,Hep G2 cells [2],no cytotoxicity
same,attenuated lipid accumulation in the cells,Hep G2 cells [3]; 10 μg/ml,20.6%
same,attenuated lipid accumulation in the cells,Hep G2 cells [3]; 100 μg/ml,24.1%
same,cellular lipid accumulation as compared with the control group,Hep G2 cells [3],significantly reduced
"CC(C)=CCOc1ccc([C@H]2C(=O)N(O)C(=O)[C@@H]2CC(C)C)cc1 (relative stereo) [Antrodin D, 3R*,4S*-1-hydroxy-3-isobutyl-4-[4-(3-methyl-2-butenyloxy)phenyl]pyrrolidine-2,5-dione]",cytotoxicity to Hep G2 cells,Hep G2 cells [2],no cytotoxicity
same,attenuated lipid accumulation in the cells,Hep G2 cells [3]; 100 μg/ml,18.6%
same,cellular lipid accumulation as compared with the control group,Hep G2 cells [3],significantly reduced
